According to patent US12070445B2, “System and assay for monitoring production/release of membrane-lytic toxins in bacteria and compounds for modulating same” (priority 2021, dated 2024):

System: S. aureus
Assay: S. aureus growth (OD600)
Assay type: cell-based
Details: S. aureus WT and QS mutant with vesicles, 12 hr
Method: Microtiter plate vesicle lysis assays. Portions of media (2 or 10 mL) were inoculated with individual bacterial colonies and allowed to shake overnight. From these overnight cultures, subcultures were prepared by diluting the cultures 1:50 (v/v) in fresh BHI for S. aureus or 1:100 (v/v) in fresh LB for P. aeruginosa. An aliquot of each subculture (178 μL) was added to 20 μL of vesicle suspension and 2 μL of compound solution (dissolved in DMSO at 100× working concentration) in a clear-bottomed, black 96-well microtiter plate (Corning 3904). For controls, DMSO (vehicle) or Triton X-100 (1% final concentration) was substituted for compound. Plate covers were coated with an aqueous solution of 0.05% Triton X-100 and 20% ethanol (Brewster, 2003) to prevent the accumulation of condensation. Plates were incubated in a Biotek Synergy 2 microplate reader running Gen5 1.05 software at 37° C. with shaking at the high-speed setting. Fluorescence (excitation 500 nm, emission 540 nm) and OD600 (absorbance at 600 nm) measurements were recorded every 15 minutes for 12 hours. All experiments were performed in technical triplicate in a single microtiter plate. Biological triplicates were then obtained over three days. GraphPad Prism software (v. 9) was used to generate curves and calculate standard error.
High-throughput screening and follow-up analysis protocols. Test compounds and positive control 1 were delivered in 2.5 nL aliquots of DMSO with an Echo 550 liquid handler (LabCyte Inc.) into black 384-well microtiter plates (Corning). All test compounds were tested at 10 μM; positive control 1 was tested at 250 nM. DMSO was used as a negative control. Overnight cultures (2 mL) of WT S. aureus (RN6390b) were grown at 37° C. with shaking at 200 rpm. These cultures were diluted 1:500 (v/v) in fresh BHI medium, at which point vesicle solutions were added to a final concentration of 1 mM phospholipid (as determined by ^31P NMR analyses). This vesicle-cell mixture was then added to the 384-well microtiter plates with a Multidrop 384 liquid-dispensing robot (Thermo Scientific) for a total volume of 50 μL per well. Plates were incubated statically for ˜24 hr at 37° C., at which point fluorescence (excitation 483, emission 530) and OD600 (absorbance at 600 nm) measurements were made using a CLARIOstarR Plus microtiter plate reader (BMG Labtech) running MARS data analysis software. Scatter plots were generated using the Collaborative Drug Discovery Vault informatics platform. […] Fluorescence (excitation 510, emission 544) and OD600 measurements were acquired with a PerkinElmer EnVision microtiter plate reader running Envision Manager software. […]

SMILES: CC(C)c1ccc(S(=O)(=O)c2nnn3c2nc(O)c2ccccc23)cc1 [Compound 6, savirin]
- impact on cell growth: some effects on growth at later time points
